Test results as given in US10682417B2, “Targeted sensitization of non-del(5q) malignant cells” (H. LEE MOFFITT CANCER CENTER AND RESEARCH INSTITUTE, INC., priority 2013, dated 2020).

Assays:
U937 cells = test: Apoptosis after dual Cdc25C/PP2Acα shRNA knockdown plus lenalidomide, U937 cells; type: cell-based; settings: dual Cdc25C and PP2Acα shRNA knockdown 48 hours, then lenalidomide 5 μM for 48 hours
Description: (§1) FIGS. 2A-2B are images of an RT-PCR gel (FIG. 2A) and Western blot (FIG. 2B) to detect PP2A and Cdc25C gene (FIG. 2A) and protein (FIG. 2B) expression in U937 cells infected with mock (lane 1), lentiviral vectors encoding non-target shRNA control (lane 2), shCdc25C (lane 3), shPP2Acα (lane 4), shCdc25C and PP2Acα (lane 5) and negative for PCR (lane 6) and harvested 48 hours after incubation. FIGS. 2C and 2D are bar graphs showing P2Acα and Cdc25c mRNA expression (copies/GAPDH) in U937 cells infected with mock, lentiviral vectors encoding non-target shRNA control, shCdc25C, shPP2Acα, or shCdc25C and PP2Acα. FIGS. 2E-2F are bar graphs showing apoptosis (%) in U937 cells (E) or BM-MNC (F) that were infected with lentiviral vectors containing various constructs as indicated for 48 hours and then treated with or without lenalidomide at the concentration of […] for additional 48 hours before being analyzed for apoptosis. […]
(§2) U937 cells were infected with mock (lane 1), lentiviral vectors encoding non-target shRNA control (lane 2), shCdc25C (lane 3), shPP2Acα (lane 4), shCdc25C and PP2Acα (lane 5) and negative for PCR (lane 6). […] The U937 cells (FIG. 2C) or BM-MNC (FIG. 2D) were infected with lentiviral vectors containing various constructs as indicated for 48 hours and then treated with or without lenalidomide at the concentration of 5 μM for additional 48 hours before analyzed for apoptosis. […]

[1] = system: BM-MNC from non-(del)5q MDS patients; test: Apoptosis after dual Cdc25C/PP2Acα shRNA knockdown plus lenalidomide, BM-MNC; type: cell-based, human; settings: dual knockdown 48 hours, then lenalidomide 5 μM for 48 hours, p<0.001 vs shRNA control plus lenalidomide, five patients
Description: as §1, §2

del5q MDS = settings: patients with del5q MDS; cited from earlier work

## Nc1cccc2c1CN(C1CCC(=O)NC1=O)C2=O (racemic) [lenalidomide, (RS)-3-(4-Amino-1-oxo 1,3-dihydro-2H-isoindol-2-yl)piperidine-2,6-dione]
U937 cells
  apoptotic response to lenalidomide: increases apoptotic response
[1]
  apoptotic response to lenalidomide: increases apoptotic response
del5q MDS
  median duration of response: 2.5 years
